According to US20260000781A1, “FC CONJUGATES INCLUDING AN INHIBITOR OF CD73 AND USES THEREOF” (Cidara Therapeutics, Inc., priority 2022, published 2026):
Several values for one entry are separate records, joined by “and”; a condition that tells them apart may be missing. Equal values may be shown once. Read-outs that look alike come from different tables or passages of the source.

How the values were obtained:
CD73 on human PBMCs = target: T1, CD73 on human PBMCs (Homo sapiens, UniProt P21589); assay: CD73 enzyme inhibition assay with human PBMCs (PiColorLock); format: cell-based; conditions: AMP 100 μM
T1 construct: 72400 (T cells); host or cells: human PBMCs / human T cells
T1 sequence (P21589 27-549): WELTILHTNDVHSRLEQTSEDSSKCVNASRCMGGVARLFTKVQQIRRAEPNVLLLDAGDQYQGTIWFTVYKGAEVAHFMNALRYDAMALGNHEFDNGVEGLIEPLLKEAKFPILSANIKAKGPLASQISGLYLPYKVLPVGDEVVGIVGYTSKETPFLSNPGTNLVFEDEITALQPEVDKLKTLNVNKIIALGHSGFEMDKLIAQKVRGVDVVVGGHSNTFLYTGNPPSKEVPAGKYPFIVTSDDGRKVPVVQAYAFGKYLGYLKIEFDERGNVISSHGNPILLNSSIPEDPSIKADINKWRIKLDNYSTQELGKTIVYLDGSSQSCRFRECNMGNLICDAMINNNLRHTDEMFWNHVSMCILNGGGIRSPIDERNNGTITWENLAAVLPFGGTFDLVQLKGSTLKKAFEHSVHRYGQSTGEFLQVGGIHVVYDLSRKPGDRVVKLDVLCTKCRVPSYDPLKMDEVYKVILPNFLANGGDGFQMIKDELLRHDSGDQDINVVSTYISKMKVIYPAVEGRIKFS
Protocol: The cell-based CD73 enzyme inhibition assay was performed in a 96-well plate format using the PiColorLock phosphate assay kit in accordance with the manufacturer's instructions (Abcam cat no. 270004). 4T1 mouse cells are a model for stage IV human breast cancer (ATCC CRL-2539) and human peripheral blood mononuclear cells (PBMCs; StemCell Technologies cat no. 70025) from three different donors were assayed. 4T1 cells were washed three times with a phosphate-free CD73 buffer (Lawson et al., 2020), detached from tissue-culture flasks using a cell scraper, and seeded at 5×10^3 cells/well into 96-well tissue culture-treated plates. Human PBMCs were washed three times with phosphate-free CD73 buffer at 125×g for 10 min at room temperature and seeded at 1×10^5 cells/well into 96-well tissue culture-treated plates. Test articles were tested from 0.001 nM to 1,000 nM (4T1 cells) or 0.0001 nM to 100 nM (PBMCs) and incubated with cells for 30 min at 37° C., 5% CO2. AMP (100 μM final concentration) was added to cells and test articles, and the reaction incubated for 3 h and 24 h at 37° C., 5% CO2. The conversion of AMP to adenosine and phosphate in cell-free supernatant was quantified using the PiColorLock kit. Colorimetric detection reagent was added and the phosphate production was measured by reading the absorbance at 635 nm with the EnSpire multimode plate reader (PerkinElmer). Cells without test article (positive control) were included on each plate. Control wells without test article and cells (background) were subtracted from all wells. Percent CD73 inhibition versus inhibitor concentration was plotted using GraphPad Prism Version 8 and IC50's calculated using nonlinear regression analysis (Sigmoidal, 4 PL).
The cell-based CD73 enzyme inhibition assay was performed in a 96-well plate format using the Phosphate Assay Kit—PiColorLock™ in accordance with the manufacturer's instructions (cat no. 270004, Abcam). AMP is enzymatically converted by CD73 to adenosine and phosphate. Therefore, adenosine concentrations can be inferred from phosphate concentrations in 1:1 ratio. Both EMT6 mouse mammary carcinoma cells (ATCC CRL-2755) and human peripheral blood mononuclear cells (PBMC; Stemcell Technologies cat no. 70025, lot no. 2202401007) were assayed. The EMT6 cells were washed three times with a phosphate free CD73 buffer, detached from flasks using a cell scraper, and seeded at 3×10^3 cells/well in 100 μL into 96-well tissue culture-treated plates. Human PBMC cells were washed three times by suspending in phosphate free CD73 buffer and pelleting in a centrifuge at 125×g for 10 min at room temperature and seeded at 5×10^5 cells/well in 100 μL into 96-well tissue culture-treated plates. […] AMP was added at 100 μM and cells, test articles, and AMP were incubated together for 3 h and 24 h at 37° C., 5% CO2. The CD73 activity in the supernatant was quantified using the PiColorLock Phosphate assay kit. Colorimetric detection reagent was added and the free phosphate from the CD73 reaction was measured by reading the absorbance at 635 nm using the EnSpire multimode plate reader (PerkinElmer). Wells without test inhibitor (CD73 positive control) were included on each plate. Wells without test inhibitor and cells (background) were subtracted from all wells. The percent CD73 inhibition versus inhibitor concentration was plotted using GraphPad Prism Version 8 and IC50's calculated using nonlinear regression analysis (Sigmoidal, 4 PL).

human CD73/NT5E protein = target: T2, human CD73/NT5E protein (Homo sapiens, UniProt P21589); assay: Human CD73 binding by surface plasmon resonance; conditions: SPR, Biacore 8k; DFCs and mAbs on His-captured CD73, small molecules on NTA-captured CD73 (Table 14)
T2 construct: purchased Acro Biosystems CD3-H52H7
T2 sequence (P21589 27-549): T1 sequence (P21589 27-549)
Protocol: Kinetic binding of drug-Fc conjugates (DFCs) and comparator monoclonal antibodies (mAbs) to human CD73 by surface plasmon resonance (SPR) was performed by Acro Biosystems using the Biacore 8 k system (Cytiva). The anti-histidine antibody included in the His Capture Kit, type 2 (cat no. 29234602, Cytiva) was diluted to 50 μg/mL in immobilization buffer (10 mM sodium acetate, pH 4.5; cat no. 29234602, Cytiva) and immobilized at a flow rate of 10 μL/min for 420 s to 10,000 RU on a Series S Sensor Chip CM5 (cat no. 29149603, Cytiva). […] Sensorgrams were recorded by flowing 2-fold dilutions of analyte (DFC or mAb) in running buffer at concentrations ranging from 125 nM to 0.977 nM. Binding was measured at a flow rate of 30 μL/min, with a 90 s association phase and 120 s dissociation phase. […] Binding kinetics were analyzed using the data analysis software. […]
Binding of small molecule benchmark inhibitors to human CD73 by SPR was performed by Acro Biosystems using the Biacore 8 k system (Cytiva). […] Sensorgrams were recorded by flowing 2-fold dilutions of DFC analytes in running buffer at concentrations ranging from 15.625 nM to 0.977 nM. Binding was measured at a flow rate of 30 μL/min, with a 120 s association phase and 300 s dissociation phase. […] Binding kinetics were analyzed using the data analysis software. […]

CD73 [1] = target: T3, CD73 (Homo sapiens, UniProt P21589); assay: Cell-free CD73 enzyme inhibition assay; format: biochemical; conditions: recombinant human CD73 0.1 ng/μL, AMP 100 μM, 25 min at 37° C. (FIG. 1A, 1B)
T3 sequence (P21589 27-549): T1 sequence (P21589 27-549)
Protocol: The cell-free CD73 enzyme inhibition assay was performed in a 96-well plate format using the CD73 Inhibitor Screening Assay Kit in accordance with the manufacturer's instructions (cat no. 72055, BPS Bioscience). […] Colorimetric detection reagent was then added (100 μL/well) and the free phosphate from the CD73 reaction was measured by reading the absorbance at 630 nm using the EnSpire multimode plate reader (PerkinElmer). Wells without test inhibitor (CD73 positive control) were included on each plate. Blank wells without test inhibitor and CD73 were subtracted from all wells. Percent CD73 inhibition versus inhibitor concentration was plotted using GraphPad Prism Version 8 and IC50's calculated using nonlinear regression analysis (Sigmoidal, 4 PL).
(§1) The cell-free CD73 enzyme inhibition assay was performed in a 96-well plate format using the CD73 Inhibitor Screening Assay Kit in accordance with the manufacturer's instructions (BPS Bioscience cat no. 72055). […] Colorimetric detection reagent was then added (100 μL/well) and the free phosphate from the CD73 reaction was measured by reading the absorbance at 630 nm using the EnSpire multimode plate reader (PerkinElmer). Wells without test inhibitor (CD73 positive control) were included on each plate. Blank wells without test inhibitor and CD73 were subtracted from all wells. Percent CD73 inhibition (y-axis) versus log10 inhibitor concentration (x-axis) was plotted using GraphPad Prism Version 8 and IC50's calculated using nonlinear regression analysis (Sigmoidal, 4 PL).

CD73 [2] = target: T3, CD73; assay: Cell-free CD73 enzyme inhibition assay (BPS Bioscience kit, colorimetric free phosphate); format: biochemical; conditions: AMP 100 μM, 25 min at 37° C.
Protocol: as §1

[3] = read-out: 3 h median IC50 [nM] (range), three unique PBMC donors, 3 h
[4] = three unique PBMC donors, 24 h, read-out: 24 h median IC50 [nM] (range)

Row | Structure (SMILES) | IC50 (CD73 on human PBMCs; human PBMCs, 24 h (Table 18), read-out: 24 h IC50) [nM] | IC50 (CD73 on human PBMCs; read-out: 3 h IC50, human PBMCs, 3 h (Table 18)) [nM] | IC50 (CD73 on human PBMCs; [3]) [nM] | IC50 (CD73 on human PBMCs; [4]) [nM] | Kd (human CD73/NT5E protein) [nM] | IC50 (CD73 [1]) [nM] | IC50 (CD73 [2])
1 | COC[C@](CO)(OC[C@H]1O[C@@H](n2ncc3c(NC4CCCC4)nc(Cl)nc32)[C@H](O)[C@@H]1O)P(=O)(O)O [OP-5244] | 0.28 | 0.011 | 0.07 | 0.15 | 0.523 | 1.3 | 3.8 nM and 3.79 nM
2 | O=P(O)(O)COC[C@H]1O[C@@H](n2ncc3c(N4CC5(CCc6ccccc65)C4)nc(Cl)nc32)[C@H](O)[C@@H]1O [SHR170008] |  |  | 1.45 | 2.36 | 3.34 | 4.1 | 12.9 nM
